“And” between values parts separate entries of the source, which are not always exact repeats. Equal values may be shown once. Square brackets hold non-standard residues; d marks the D form. Peptide text beside a SMILES is read from it.

The source of these data is publication PMC10545747, “Development of cyclopeptide inhibitors of cGAS targeting protein-DNA interaction and phase separation” (Nature Communications, 2023).

The assay has as its target T1, recombinant human cGAS enzyme (hcGAS-ΔN, residues 147–522) (Homo sapiens, UniProt Q8N884).
T1 construct: N-terminally truncated human cGAS (hcGAS-ΔN, residues 147–522); 6xHis-SUMO (N, cleaved yes); made in house; host or cells: Escherichia coli BL21 (DE3)
Briefly: RNA-based fluorescent biosensor assay of cGAS activity (2',3'-cGAMP formation), in vitro screening. It counts as biochemical. The following applies: for Remaining activity (%), Fig. 1a source data / remaining activity at 20 µM: 20 μM, replicate values; for remaining activity at 20 µM: read-out: Remaining activity (%), Fig. 1a source data; for inhibition at 20 µM / Inhibition %: peptides screened at 20 μM, Supplementary Table 1 / Fig. S5b; for inhibition at 20 µM: read-out: Inhibition %. The text has this: To screen direct cGAS inhibitors targeting protein-DNA interface from our developed focused library of macrocyclic peptides, we applied an RNA-based fluorescent biosensor for 2’,3’-cGAMP to detect cGAS activity in vitro (Supplementary Fig. 1a)[49]. The formation of 2’,3’-cGAMP from ATP and GTP was catalyzed by recombinant human cGAS enzyme (hcGAS-ΔN, residues 147–522, Supplementary Fig. 1b) in the presence of ISD (interferon stimulatory DNA, a 45-bp dsDNA), which was readily quantified by the RNA-based fluorescent biosensor and was further confirmed by ion exchange chromatography (Supplementary Fig. 1c). […] Subsequently, a total of 90 macrocyclic peptides were screened at a concentration of 20 μM (Fig. 1a and Supplementary Fig. 1e), and 4 hits (XQ2, XQ8, XQ19, and XQ46) were obtained for further testing at a cut-off of 40% inhibition (Supplementary Table 1). To evaluate the inhibitory effect of the hits against cGAS in cells, we employed real-time quantitative PCR (qPCR) to examine mRNA levels of IFNΒ1 in THP1 cells. The reported cGAS inhibitor RU.521 was used as the positive control, and the non-active peptide XQ28 in the screening assay was used as the negative control. […] The inhibition of cGAS by these hits was further confirmed in the reporter cell line THP1-Lucia ISG (Invivogen) that expresses secreted luciferase induced by an IRF3-inducible ISG54 promoter (Fig. 1c). The discrepancy between the inhibitory effect of the hits in protein and cellular assays may be attributed to their different cellular permeability.
The high-throughput screening (HTS) experiments of cGAS activity are based on the method previously described. To initiate the enzyme reaction, ISD was added to the reaction solution (40 mM Tris-HCl, pH 7.5, 100 mM NaCl, 10 mM MgCl2) containing hcGAS-ΔN, ATP (Sangon Biotech, Cat# A600311) and GTP (Sangon Biotech, Cat# A620332) in a total volume of 20 ul with the final concentration of 0.5 μM, 1.5 μM, 1 mM, 1 mM, respectively, and incubated for 2 h at 37 °C. For HTS experiments, compounds were added to the same reaction conditions as described above with the final concentration of 20 μM. Z’ factors were calculated from three replicates in the 384-well plate.

T1 sequence (Q8N884 147-522, stated change not applied): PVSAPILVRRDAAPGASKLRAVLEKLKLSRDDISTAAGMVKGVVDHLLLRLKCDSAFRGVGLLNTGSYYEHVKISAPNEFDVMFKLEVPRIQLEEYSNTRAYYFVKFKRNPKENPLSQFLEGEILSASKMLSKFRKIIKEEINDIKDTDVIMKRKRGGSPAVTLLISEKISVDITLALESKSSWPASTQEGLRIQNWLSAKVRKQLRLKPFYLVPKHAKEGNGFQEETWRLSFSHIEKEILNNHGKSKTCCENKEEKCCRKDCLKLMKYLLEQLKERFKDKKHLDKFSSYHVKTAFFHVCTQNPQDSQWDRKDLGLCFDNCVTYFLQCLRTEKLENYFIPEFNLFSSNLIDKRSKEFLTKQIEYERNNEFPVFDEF

For orientation: remaining activity means the signal under treatment as a percentage of the control signal. The inhibition is the share of the control response that was lost under treatment. In the case of `CC(C)[C@@H]1NC(=O)[C@@H]2CCCN2C(=O)[C@@H](C)NC(=O)[C@H](C)NC(=O)[C@H](CCCNC(=N)N)NC(=O)[C@H](C(C)C)NC(=O)[C@@H]2CCCN2C(=O)[C@@H](Cc2ccccc2)NC(=O)[C@H](C)NC(=O)[C@H](CCCNC(=N)N)NC1=O` [XQ22, Cyclo (AaPVRAfPVR)] (cyclo(A[dA]PVRA[dF]PVR)), the “Remaining activity (%), Fig. 1a source data” value (shortened to “Remaining activity (%)”) was 99.3962% and 98.6078%; the remaining activity at 20 µM was determined as 102%; the inhibition at 20 µM was determined as 0%.

Turning to `CC(C)C[C@@H]1NC(=O)[C@H](C)NC(=O)[C@H](C(C)C)NC(=O)[C@@H]2CCCN2C(=O)[C@@H](Cc2ccccc2)NC(=O)[C@H](CC(C)C)NC(=O)[C@H](CCCNC(=N)N)NC(=O)[C@H](C(C)C)NC(=O)[C@H](CCCNC(=N)N)NC(=O)[C@@H](Cc2ccccc2)NC1=O` [XQ45, Cyclo (LfRVRLfPVA)] (cyclo(AL[dF]RVRL[dF]PV)), the “Remaining activity (%)” value was 110.841% and 109.702%; the remaining activity at 20 µM came to 115%; the inhibition at 20 µM amounted to 0%.

As for Cyclo (Lf(Hyp)TDAfPTR) [XQ86], the Inhibition % is recorded as 0%.

As for Cyclo (AaRTDLfPVR) [XQ89], the Inhibition % was determined as 0%.

For the molecule `CC(C)C[C@@H]1NC(=O)[C@H](CCCNC(=N)N)NC(=O)[C@H](C)NC(=O)[C@@H]2CCCN2C(=O)[C@@H](Cc2ccccc2)NC(=O)[C@H](C)NC(=O)[C@H](CCCNC(=N)N)NC(=O)[C@H](C(C)C)NC(=O)[C@@H]2CCCN2C(=O)[C@@H](Cc2ccccc2)NC1=O` [XQ13, Cyclo (AfPARLfPVR)] (cyclo(ARL[dF]PVRA[dF]P)), the “Remaining activity (%)” value is 92.7452% and 92.4625%; the remaining activity at 20 µM is 93.4%; the inhibition at 20 µM turned out to be 7%.

As for `CC(C)C[C@@H]1NC(=O)[C@H](CCCNC(=N)N)NC(=O)[C@H](C(C)C)NC(=O)[C@@H]2CCCN2C(=O)[C@@H](Cc2ccccc2)NC(=O)[C@H](CC(C)C)NC(=O)[C@H](CCCNC(=N)N)NC(=O)[C@H](C(C)C)NC(=O)[C@@H]2CCCN2C(=O)[C@@H](Cc2ccccc2)NC1=O` [XQ38, Cyclo (LfPVRLfPVR)] (cyclo(L[dF]PVRL[dF]PVR)), the “Remaining activity (%)” value is 112.545% and 112.328%; the remaining activity at 20 µM turned out to be 113%; the inhibition at 20 µM is 0%.

Turning to `CC(C)C[C@@H]1NC(=O)[C@H](CCCNC(=N)N)NC(=O)[C@H](C(C)C)NC(=O)[C@@H]2CCCN2C(=O)[C@@H](Cc2ccccc2)NC(=O)[C@H](CC(C)C)NC(=O)[C@H](CCCNC(=N)N)NC(=O)[C@H](CC(C)C)NC(=O)[C@@H]2CCCN2C(=O)[C@@H](Cc2ccccc2)NC1=O` [XQ54, Cyclo (LfPLRLfPVR)] (cyclo(LRL[dF]PVRL[dF]P)), the inhibition at 20 µM worked out at 0%.

Regarding `N=C(N)NCCC[C@@H]1NC(=O)[C@@H]2CCCN2C(=O)[C@@H](Cc2ccccc2)NC(=O)[C@H](CCCNC(=N)N)NC(=O)[C@@H]2CCCN2C(=O)[C@@H](Cc2ccccc2)NC1=O` [XQ26, Cyclo (PRfPRf)] (cyclo(PR[dF]PR[dF])), the “Remaining activity (%)” value was 116.041% and 118.595%; the remaining activity at 20 µM came to 116%; the inhibition at 20 µM came to 0%.

Consider `CC(C)[C@@H]1NC(=O)[C@H](C)NC(=O)[C@@H](Cc2ccccc2)NC(=O)[C@H](C)NC(=O)[C@H](CCCNC(=N)N)NC(=O)[C@H](C(C)C)NC(=O)[C@@H]2CCCN2C(=O)[C@@H](Cc2ccccc2)NC(=O)[C@H](C)NC(=O)[C@H](CCCNC(=N)N)NC1=O` [XQ20, Cyclo (AfAVRAfPVR)] (cyclo(AVRA[dF]PVRA[dF])), for which the “Remaining activity (%)” value was 88.8732% and 88.6928%; the remaining activity at 20 µM was found to be 89.1%; the inhibition at 20 µM came to 11%.

Take `CC(C)C[C@@H]1NC(=O)[C@H](CCCNC(=N)N)NC(=O)[C@H](CC(C)C)NC(=O)[C@@H]2CCCN2C(=O)[C@@H](Cc2ccccc2)NC(=O)[C@H](C)NC(=O)[C@H](CCCNC(=N)N)NC(=O)[C@H](C(C)C)NC(=O)[C@@H]2CCCN2C(=O)[C@@H](Cc2ccccc2)NC1=O` [XQ47, Cyclo (AfPLRLfPVR)] (cyclo(A[dF]PLRL[dF]PVR)): the inhibition at 20 µM came to 0%.

As for Cyclo (LwPVDLf(K(Dde))VR) [XQ74], the Inhibition % is 0%.

As for `CC(C)C[C@@H]1NC(=O)[C@H](CCCNC(=N)N)NC(=O)[C@H]([C@@H](C)O)NC(=O)[C@@H]2CCCN2C(=O)[C@@H](Cc2ccccc2)NC(=O)[C@H](CC(C)C)NC(=O)[C@H](CCCNC(=N)N)NC(=O)[C@H](C(C)C)NC(=O)[C@@H]2CCCN2C(=O)[C@@H](Cc2ccccc2)NC1=O` [XQ42, Cyclo (LfPTRLfPVR)] (cyclo(L[dF]PTRL[dF]PVR)), the “Remaining activity (%)” value is 87.273% and 87.6684%; the remaining activity at 20 µM was 86%; the inhibition at 20 µM is 13%.

As for `CC(C)C[C@@H]1NC(=O)[C@H](C)NC(=O)[C@H](C(C)C)NC(=O)[C@@H]2CCCN2C(=O)[C@@H](Cc2ccccc2)NC(=O)[C@H](CC(C)C)NC(=O)[C@H](CCCNC(=N)N)NC(=O)[C@H](C(C)C)NC(=O)[C@@H]2CCCN2C(=O)[C@@H](CCCNC(=N)N)NC1=O` [XQ56, Cyclo (LrPVRLfPVA)] (cyclo(AL[dR]PVRL[dF]PV)), the inhibition at 20 µM worked out at 0%.

For Cyclo (LfRADAfPVR) [XQ83], the Inhibition % amounted to 0%.

Turning to Cyclo (AaRVDLfPVR) [XQ87], the Inhibition % stood at 0%.

For the molecule `CC(C)C[C@@H]1NC(=O)[C@H](CCCNC(=N)N)NC(=O)[C@H](C(C)C)NC(=O)[C@@H]2CCCN2C(=O)[C@@H](Cc2ccccc2)NC(=O)[C@H](C)NC(=O)[C@H](CCCNC(=N)N)NC(=O)[C@H](C(C)C)NC(=O)[C@@H]2CCCN2C(=O)[C@@H](CC(C)C)NC1=O` [XQ53, Cyclo (LlPVRAfPVR)] (cyclo(A[dF]PVRL[dL]PVR)), the inhibition at 20 µM is 0%.

`CC(C)C[C@@H]1NC(=O)[C@H](CCCNC(=N)N)NC(=O)[C@H]([C@@H](C)O)NC(=O)[C@@H]2CCCN2C(=O)[C@@H](Cc2ccccc2)NC(=O)[C@H](CC(C)C)NC(=O)[C@H](CCCNC(=N)N)NC(=O)[C@H]([C@@H](C)O)NC(=O)[C@H](C)NC(=O)[C@@H](Cc2ccccc2)NC1=O` [XQ35, Cyclo (LfATRLfPTR)] (cyclo(ATRL[dF]PTRL[dF])): the “Remaining activity (%)” value is 106.53% and 106.617%; the remaining activity at 20 µM was 106%; the inhibition at 20 µM was 0%.

For `CC(C)C[C@@H]1NC(=O)[C@H](CCCNC(=N)N)NC(=O)[C@@H]2CCCN2C(=O)[C@@H](Cc2ccccc2)NC(=O)[C@H](CCCNC(=N)N)NC(=O)[C@H](C(C)C)NC(=O)[C@@H]2CCCN2C(=O)[C@@H](Cc2ccccc2)NC1=O` [XQ25, Cyclo (fPVRfPRL)] (cyclo(L[dF]PVR[dF]PR)), the “Remaining activity (%)” value is 114.007% and 112.821%; the remaining activity at 20 µM amounted to 112%; the inhibition at 20 µM came out at 0%.

`CC(C)C[C@@H]1NC(=O)[C@H](CCCNC(=N)N)NC(=O)[C@H]([C@@H](C)O)NC(=O)[C@@H]2CCCN2C(=O)[C@@H](Cc2ccccc2)NC(=O)[C@H](CC(C)C)NC(=O)[C@H](CCCNC(=N)N)NC(=O)[C@H](C)NC(=O)[C@@H]2CCCN2C(=O)[C@@H](Cc2ccccc2)NC1=O` [XQ36, Cyclo (LfPARLfPTR)] (cyclo(ARL[dF]PTRL[dF]P)): the “Remaining activity (%)” value is 88.7067% and 87.9053%; the remaining activity at 20 µM is 89.5%; the inhibition at 20 µM is 11%.

Regarding Cyclo (LfPTDAfPVR) [XQ84], the Inhibition % came out at 0%.

Take `CC(C)C[C@@H]1NC(=O)[C@H](CC(=O)O)NC(=O)[C@H](C(C)C)NC(=O)[C@@H]2CCCN2C(=O)[C@@H](Cc2ccccc2)NC(=O)[C@H](CC(C)C)NC(=O)[C@H](CCCNC(=N)N)NC(=O)[C@H](C(C)C)NC(=O)[C@@H]2CCCN2C(=O)[C@@H](Cc2ccccc2)NC1=O` [XQ60, Cyclo (LfPVDLfPVR)] (cyclo(DL[dF]PVRL[dF]PV)): the inhibition at 20 µM came out at 0%.

In the case of `CC(C)C[C@@H]1NC(=O)[C@H](C)NC(=O)[C@H](C(C)C)NC(=O)[C@@H]2CCCN2C(=O)[C@@H](Cc2ccccc2)NC(=O)[C@H](CC(C)C)NC(=O)[C@H](CCCNC(=N)N)NC(=O)[C@H](C(C)C)NC(=O)[C@@H]2CCCN2C(=O)[C@@H](Cc2ccccc2)NC1=O` [XQ4, Cyclo (LfPVALfPVR)] (cyclo(AL[dF]PVRL[dF]PV)), the “Remaining activity (%)” value was 84.7804% and 84.3938%; the remaining activity at 20 µM was found to be 84.5%; the inhibition at 20 µM was found to be 16%.
